Measured values reported in ChEMBL document CHEMBL1201862, “PubChem BioAssay data set” (2004).
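96-well plates; 48 h exposure; 5 concentrations. Endpoints by linear interpolation between flanking doses. Not reached: highest tested concentration assigned. GI50 marks 50% less growth.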 Activity calls are given as the source filed them. No stated cut-off is given here; in the data, active = GI50 up to about 1.1 µM and inactive = higher.

Experiments:
Assay in all cases: DTP human tumour cell line panel, 48 h
SR = system: SR
NCI-H23 = system: NCI-H23
SF-539 = system: SF-539
NCI-H226 = system: NCI-H226
UO-31 = system: UO-31
CCRF-CEM = system: CCRF-CEM
M19-MEL = system: M19-MEL
K562 = system: K562
HCT-116 = system: HCT-116
RPMI-8226 = system: RPMI-8226
OVCAR-4 = system: OVCAR-4
HL-60 = system: HL-60
LXFL 529 = system: LXFL 529
SK-MEL-2 = system: SK-MEL-2
HCC 2998 = system: HCC 2998
Malme-3M = system: Malme-3M
UACC-62 = system: UACC-62
SNB-78 = system: SNB-78
DMS-273 = system: DMS-273
HOP-62 = system: HOP-62
SK-OV-3 = system: SK-OV-3
DMS-114 = system: DMS-114
SNB-75 = system: SNB-75
HOP-92 = system: HOP-92
SF-268 = system: SF-268
786-0 = system: 786-0
MOLT-4 = system: MOLT-4
NCI-H522 = system: NCI-H522
IGROV-1 = system: IGROV-1
CAKI-1 = system: CAKI-1
M14 = system: M14
SK-MEL-28 = system: SK-MEL-28
DLD-1 = system: DLD-1
COLO 205 = system: COLO 205
EKVX = system: EKVX
UACC-257 = system: UACC-257
RXF 393 = system: RXF 393
SW-620 = system: SW-620
U-251 = system: U-251
SNB-19 = system: SNB-19
SN12C = system: SN12C
A549 = system: A549
NCI-H460 = system: NCI-H460
TK-10 = system: TK-10
SF-295 = system: SF-295
OVCAR-5 = system: OVCAR-5
KM12 = system: KM12
OVCAR-8 = system: OVCAR-8
OVCAR-3 = system: OVCAR-3
HT-29 = system: HT-29
ACHN = system: ACHN
A498 = system: A498
SK-MEL-5 = system: SK-MEL-5

Measured: GI50

Cc1c2cc(Cl)ccc2n2c(=O)c3ccccc3[nH]c(=O)c12
inactive: SR 45.3 µM | NCI-H23 > 100 µM | SF-539 78.2 µM | NCI-H226 > 100 µM | UO-31 > 100 µM | CCRF-CEM 36.1 µM | M19-MEL > 100 µM | K562 50.1 µM | HCT-116 69.2 µM | RPMI-8226 > 100 µM | OVCAR-4 49.8 µM | HL-60 > 10 µM | LXFL 529 > 100 µM | SK-MEL-2 > 100 µM | HCC 2998 > 100 µM | Malme-3M > 100 µM | UACC-62 > 100 µM | SNB-78 > 100 µM | DMS-273 > 100 µM | HOP-62 31.2 µM | SK-OV-3 > 100 µM | DMS-114 > 100 µM | SNB-75 59.6 µM | HOP-92 > 100 µM | SF-268 > 100 µM | 786-0 41.5 µM | MOLT-4 42.9 µM | NCI-H522 > 100 µM | IGROV-1 > 100 µM | CAKI-1 > 100 µM | M14 > 100 µM | SK-MEL-28 > 100 µM | DLD-1 > 100 µM | COLO 205 > 100 µM

ClCCC[Si]12OCCN(CCO1)CCO2
inactive: EKVX > 100 µM | UACC-257 > 100 µM | SR > 100 µM | RXF 393 > 100 µM | NCI-H23 > 100 µM | SF-539 > 100 µM | NCI-H226 > 100 µM | SW-620 > 100 µM | UO-31 > 100 µM | CCRF-CEM > 100 µM | U-251 > 100 µM | M19-MEL > 100 µM | K562 > 100 µM | HCT-116 > 100 µM | RPMI-8226 > 100 µM | HL-60 > 100 µM | LXFL 529 > 100 µM | SNB-19 > 100 µM | SN12C > 100 µM | SK-MEL-2 > 100 µM | HCC 2998 > 100 µM | Malme-3M > 100 µM | UACC-62 > 100 µM | SNB-78 > 100 µM | A549 > 100 µM | NCI-H460 > 100 µM | DMS-273 > 100 µM | TK-10 > 100 µM | SK-OV-3 > 100 µM | DMS-114 > 100 µM | SF-295 > 100 µM | SNB-75 > 100 µM | OVCAR-5 > 100 µM | KM12 > 100 µM | HOP-92 > 100 µM | SF-268 > 100 µM | 786-0 > 100 µM | MOLT-4 > 100 µM | NCI-H522 > 100 µM | IGROV-1 > 100 µM | OVCAR-8 > 100 µM | CAKI-1 > 100 µM | OVCAR-3 > 100 µM | HT-29 > 100 µM | SK-MEL-28 > 100 µM | ACHN > 100 µM | DLD-1 > 100 µM | COLO 205 > 100 µM | A498 > 100 µM | SK-MEL-5 > 100 µM
